Entries after “also recorded” stand apart in the source; their conditions may differ.
Tests used:
Type in all cases: in vivo
[1] = tested on: single housed hyper-aggressive male Swiss mice; test: Isolation-induced aggression model, two mouse social interaction test; settings: for increased time spent fighting in single housed mice: 10-minute test
From the text: This model has been chosen as it is considered to have excellent predictive validity toward human aggression and face validity for modelling offensive impulsive aggression in human aggression and it leads specifically to alterations in aggressive behaviour without confounding changes in other behaviours.
Eighty male Swiss mice (ARC, Perth, Australia) aged 6-7 weeks upon arrival were used for objectives (1) and (3) in this study, 30 mice of the same age and strain were used for objective (2). Subjects were housed four per cage in a temperature-controlled colony room (22° C.±1° C.) under standard laboratory conditions (12-hour light/dark cycle; light phase 0700-1900 hours) upon arrival. Mice were housed in standard IVC cages. Mice had ad libitum access to food and water in their home cages. All experiments were performed during the light phase. All experimental procedures were approved by University of Sydney Animal Ethics Committee.
After allowing 1 week for acclimatisation, n=64 mice were rendered hyper-aggressive by moving them into single housing, whereas n=16 animals were housed in groups of four. During this time, all mice were weighed at least once per week. One week prior to the commencement of testing mice were given habituation injections with saline (0.9%, 10 mL/kg) to reduce the potential confounding stress and anxiety from injections during testing.
Testing commenced from 6 weeks post-isolation. All experiments were conducted in testing arenas constructed from acrylic, with matte blue internal walls and floor (400 mm×400 mm×400 mm). The lighting at the centre of the arenas during testing was <10 lux. Prior to each test, one mouse in each pair was marked on its back with a non-toxic green marker, this allowed the automated behavioural tracking software to distinguish between the two mice (see below). On test days, weight and condition matched pairs of unfamiliar mice were administered their drug treatment(s) as described below and were then placed into the testing arena together for a 10 min test session (Examples 2 and 4) or a 5 minute test session (Example 3).
Drugs were administered either via intraperitoneal (i.p.) injection (injection volume 10 ml/kg) or administered orally (as indicated). The testing arenas were cleaned between sessions with ethanol (80%) and F10 disinfectant to eliminate residual odours.
KNX100 2HCL (Wuxi Apptech, Hong Kong, China) was dissolved in saline (0.9%).
A 5 group between-subjects design was utilised. 15 min prior to testing, group-housed mice received vehicle treatment (VEHg) and single housed mice received one of four different doses of KNX100 (0 aka VEHs, 2.5, 5 or 10 mg/kg). The sample size in each group was as follows: group housed (n=12); singled housed administered KNX100 dose 0 (n=14), […] (n=16), […] (n=18), and 10 (n=16) mg/kg, for i.p. administration.
For oral dosing, mice were similarly grouped, and 20 mg/kg KNX100 in saline or vehicle (saline) were administered by oral gavage with n=10 mice per group.
A 4 group between-subjects design was utilised.
The behaviours of interest were: (1) time (in seconds) spent fighting; (2) time (in seconds) spent huddling (defined as the mice being in close physical contact with each other while stationary); (3) time (in seconds) spent grooming themselves; and (4) distance travelled (in mm) by each mouse during the experimental session.
Experimental sessions were recorded with an overhead camera using CaptureStar (Version 1.00, CleverSys, Virginia, USA). The behaviours detailed above were automatically quantified from the videos using the behavioural tracking software TopScan, SocialScan and AggressionScan (CleverSys, Virginia, USA). Data were analysed using SPSS (Version 24.0, IBM, USA). Data were analysed with a one-way ANOVA and planned contrasts. Significance was set at p≤0.05.
This study used the same model and testing procedure for the two-mouse social interaction test as described in Example 1, and using a phosphate salt form of KNX100.

6-OHDA lesion mice = test: Social interaction test in neonatal 6-OHDA lesion mouse model of ADHD; settings: KNX100 phosphate 1.845-7.38 mg/kg freebase equivalent i.p. or 3.75-15 mg/kg p.o.
From the text: Increased aggression is commonly observed in patients with ADHD. This increased aggression is also observed in several animal models of ADHD. One such model is the neonatal 6-hydroxydopamine (6-OHDA) lesion mouse model.
Briefly, intracerebroventricular infusion of 6-OHDA into brains of mice around postnatal day 5 results in a biological ADHD phenotype (e.g. dopamine depletion) and a behavioural phenotype (e.g. hyperactivity, impaired attention, impulsivity, aggression, and learning and memory deficits) in the majority of mice from postweaning onwards.
Five primary experimental conditions of interest are investigated: • Sham lesion mice treated with vehicle • 6-OHDA lesion mice treated with vehicle • 6-OHDA lesion mice treated with 1.845 mg/kg freebase equivalent KNX100 phosphate i.p. or 3.75 mg/kg p.o. • 6-OHDA lesion mice treated with 3.69 mg/kg freebase equivalent KNX100 phosphate i.p. or 7.5 mg/kg p.o. • 6-OHDA lesion mice treated with 7.38 mg/kg freebase equivalent KNX100 phosphate i.p. or 15 mg/kg p.o.
During adolescence, mice undergo a social interaction test to test the effects of KNX100 on increased aggression the ADHD model mice (6-OHDA lesion mice) compared to the control mice (sham lesion mice). […] The behaviours of the control or ADHD model mouse are assessed and include the total time spent fighting, the total number of fights, and the latency to the first fight.

APP/PS1 mice = test: Resident-Intruder (RI) test in Alzheimer's disease aggression mouse model; settings: for number (frequency) of attacks on the intruder mouse vs vehicle-treated APP/PS1 mice: KNX100 phosphate salt 2.5, 5 or 10 mg/kg freebase equivalent IP 15 min prior, risperidone 0.05 mg/kg IP 30 min prior, 5-minute session
From the text: Male APP/PS1 and WT mice (˜3 months of age) were used to assess the effect of KNX100 on aggression in a mouse model of Alzheimer's Disease.
APP/PS1 are double transgenic mice expressing a chimeric mouse/human amyloid precursor protein (APP) and presenilin (PS1).
Male C57BL/6J mice were purchased from Jackson Laboratory at 7-8 weeks of age and were used as the intruders in this study. The APP/PS1 mice and wild-type control mice were single-housed and C57BL/6J mice were group-housed (4 per cage) in a light-controlled environment (12/12 light/dark cycle) with access to food and water ad libitum. Tests were performed during the animal's light cycle.
The test compound, KNX100 was provided in its phosphate salt form. Doses of 2.5, 5, and 10 mg/kg freebase equivalent were dissolved in saline and injected IP, at a dose volume of 10 ml/kg, 15 minutes prior to the test.
Briefly, all mice were acclimated to red-light conditions for 60 minutes prior to testing. During the RI test, an unfamiliar intruder C57BL/6J mouse was placed directly into the home cage of the APP/PS1 resident mouse for 300 seconds. During the 5-minute session, the latency time to attack (attack was defined at a bite), and the total number (frequency) of attacks, were recorded manually by an experimenter blinded to the treatment groups. Immediately after testing, mice were separated, and the intruder mouse was placed back into his home cage. All mice that were wounded were treated according to IACUC guidelines.
One week after the pre-screen RI session, AD resident mice were administered vehicle, test compound, or risperidone. The RI test session was performed as described above following the appropriate pretreatment time.
Body weights were recorded at each time point as specified above. For aggression, the latency to attack and the total number of attacks were recorded.
Data were analyzed by analysis of variance (ANOVA) followed by post-hoc comparisons when appropriate. An effect was considered significant if p<0.05. Data are presented as the mean±standard error of the mean (SEM).

[2] = Example 4: 0.1 mg/kg risperidone (30 min prior) or 10 mg/kg KNX100 dihydrochloride salt (15 min prior), 10 min test
[3] = Example 4: 0.1 mg/kg risperidone or 10 mg/kg KNX100 dihydrochloride salt
[4] = Example 4: 10 mg/kg KNX100 vs 0.1 mg/kg risperidone
[5] = KNX100 dihydrochloride salt 20 mg/kg p.o. 30 min prior, 5 min test
[6] = KNX100 dihydrochloride salt 2.5, 5 or 10 mg/kg i.p., single housed mice, linear trend for dose
[7] = acute KNX100 phosphate salt 15 mg/kg freebase equivalent p.o.
[8] = subchronic KNX100 phosphate salt 15 mg/kg freebase equivalent p.o. once daily 7 days

Structure (SMILES): Cn1ncc2c1Nc1ccccc1NC2 [KNX100]
- time spent fighting vs vehicle treated single housed mice [1, 2]: spent less time fighting; also recorded: significantly inhibited fighting
- distance travelled vs vehicle treated single housed mice [1, 3]: travelled significantly less distance; also recorded: significantly reduced distance travelled
- time spent fighting vs vehicle treated group housed mice [1, 3]: spent less time fighting
- time spent huddling vs vehicle treated single housed mice [1, 3]: spent significantly more time huddling; also recorded: increased huddling
- distance travelled / locomotor activity, risperidone compared with KNX100 ([1]; Example 4: 0.1 mg/kg risperidone vs 10 mg/kg KNX100): significantly less suppression of locomotor activity
- time spent grooming vs vehicle treated group housed mice ([1]; Example 4: 10 mg/kg KNX100 dihydrochloride salt): did not differ significantly from vehicle treated group housed mice in time spent grooming
- time spent fighting / inhibition of aggression, KNX100 compared with risperidone [1, 4]: no significant difference in time spent fighting; also recorded: at least equivalent inhibition of aggression to risperidone
- time spent grooming, KNX100 compared with risperidone [1, 4]: no significant different in time spent grooming
- time spent huddling, KNX100 compared with risperidone [1, 4]: no significant difference in time spent huddling
- time spent fighting vs vehicle treated group housed mice [1, 5]: did not differ significantly in time spent fighting compared to vehicle treated group housed mice; also recorded: did not differ significantly in time spent fighting relative to the group housed mice
- time spent fighting vs vehicle treated single housed mice [1, 5]: spent significantly less time fighting than the single housed vehicle treated mice
- distance travelled relative to the group housed mice ([1]; KNX100 dihydrochloride salt 2.5, 5, 10 mg/kg i.p., vs vehicle treated group housed mice): none of the doses of KNX100 resulted in a significant difference in distance travelled
- time spent fighting ([1]; KNX100 dihydrochloride salt 2.5, 5 or 10 mg/kg i.p. 15 min prior, single housed mice, linear trend for dose, 10 min test): dose dependently inhibited induced aggression; also recorded: dose dependently inhibited fighting
- distance travelled [1, 6]: dose dependently decreased distance travelled; also recorded: dose dependently inhibited
- time spent huddling [1, 6]: dose dependently increased time spent in this form of close physical contact; also recorded: dose dependently increased huddling
- time spent self-grooming [1, 6]: dose dependently increased time spent self-grooming
- efficacy of subchronic compared with acute KNX100 (duration spent fighting, number of fights, latency to first fight) ([1]; KNX100 phosphate salt 15 mg/kg freebase equivalent p.o.): no significant difference in efficacy; also recorded: maintains full efficacy at reducing aggressive behaviour after repeated dosing; also recorded: equally efficacious
- greater number of fights in single housed mice [1, 7]: prevented
- reduced latency to first fight in single housed mice [1, 7]: prevented
- increased time spent fighting in single housed mice ([1]; acute KNX100 phosphate salt 15 mg/kg freebase equivalent p.o. on day 7, 30 min prior): prevented the increased time spent fighting
- greater number of fights in single housed mice [1, 8]: prevented
- reduced latency to first fight in single housed mice [1, 8]: prevented
- increased time spent fighting in single housed mice [1, 8]: prevented the increased time spent fighting
- total time spent fighting, total number of fights, latency to the first fight (6-OHDA lesion mice): is shown to inhibit fighting incidents, duration of fighting, and latency to first attack
- latency to attack the intruder mouse vs vehicle-treated APP/PS1 mice (APP/PS1 mice; KNX100 phosphate salt 10 mg/kg freebase equivalent IP): showed a trend to increasing the latency to attack; also recorded: tended to increase the latency to attack intruders
- number (frequency) of attacks on the intruder mouse vs vehicle-treated APP/PS1 mice (APP/PS1 mice): decreased the number of attacks; also recorded: robustly reduced the number of aggressive attacks

Structure (SMILES): Cc1nc2n(c(=O)c1CCN1CCC(c3noc4cc(F)ccc34)CC1)CCCC2 [risperidone, reference compound]
- time spent fighting vs vehicle treated single housed mice [1, 2]: spent less time fighting; also recorded: significantly inhibited fighting
- time spent fighting vs vehicle treated group housed mice [1, 3]: spent less time fighting
- time spent huddling vs vehicle treated single housed mice [1, 3]: spent significantly more time huddling; also recorded: increased huddling
- time spent grooming vs vehicle treated single housed mice ([1]; Example 4: 0.1 mg/kg risperidone, 0.1 mg/kg): spent significantly more time grooming; also recorded: significantly increased time spent grooming
- number (frequency) of attacks on the intruder mouse vs vehicle-treated APP/PS1 mice (APP/PS1 mice): decreased the number of attacks
